What was measured:
[1] = Maximum carbon dioxide (CO2) release temperature by DSC; assay type: physicochemical; details: after 24 hours in air at 23° C. and 50% RH; heating rate 10° C./minute, nitrogen
Experimental: A carbon dioxide detector and a Petri dish were placed in an openable desiccator (inner dimension: 370 mm × 260 mm × 272 mm). Subsequently, the cyclic polyamine compound (5 mmol) was added to the Petri dish in the desiccator and the door was immediately closed to leave the cyclic polyamine compound to stand in the desiccator in an air environment at 23° C. and 50% RH for 24 hours. The initial concentration of carbon dioxide was adjusted to about 400 ppm.
Then the cyclic polyamine compound was taken out of the desiccator to give a cyclic polyamine compound with carbon dioxide absorbed. The maximum carbon dioxide release temperature of the cyclic polyamine compound with carbon dioxide absorbed was measured by subjecting the cyclic polyamine compound to DSC as described below. First, differential scanning calorimetry of the cyclic polyamine compound was performed under conditions of a temperature range of 23 to 250° C., a heating rate of 10° C./minute and a nitrogen atmosphere using a differential thermogravimeter (product name DTG-60 made by Shimadzu Corporation). The temperature at which the amount of heat absorbed due to the desorption of carbon dioxide was the maximum was calculated from the DSC curve obtained, and the temperature was determined as the maximum carbon dioxide release temperature of the cyclic polyamine compound.

[2] = Percentage increase of mass after standing in air (absorption of carbon dioxide); assay type: physicochemical; details: air environment at 23° C. and 50% RH for a week
Experimental: A cyclic polyamine compound, MXDA, was put in a container and left to stand in an air environment at 23° C. and 50% RH for a week. By doing so, MXDA and carbon dioxide in the air were reacted to give a reaction product of MXDA and carbon dioxide (carbonate of MXDA). At that stage, to suppress uneven reaction, the container in which the cyclic polyamine compound was placed was shaken as necessary so as not to leave unreacted MXDA. The water content in the resulting reaction product (carbonate of MXDA) was 0% by mass.
Next, the amount of increase of the mass of MXDA was measured, and the percentage increase of the mass of the cyclic polyamine compound was calculated by the following equation.
Percentage increase of mass of cyclic polyamine compound [% by mass]=100×amount of increase of mass of cyclic polyamine compound (g)/(initial mass of cyclic polyamine compound (g)[…])

## NCc1cccc(CN)c1 [MXDA, metaxylylenediamine]
[1]
  maximum carbon dioxide (CO2) release temperature: 135.5 °C
[2]
  percentage increase of the mass: 24.1 % by mass

Reference: patent publication US20260015451A1, “FOAMED-RESIN-FORMABLE COMPOSITION, POLYUREA-BASED RESIN FOAM BODY, AND POLYUREA-BASED RESIN FOAM BODY PRODUCTION METHOD” (MITSUBISHI GAS CHEMICAL COMPANY, INC., priority 2022, published 2026)
